In ChEMBL document CHEMBL1817644, “Rational design of SAM analogues targeting SAM-II riboswitch aptamer” (Bioorg Med Chem Lett, 2011):
Calls of active or inactive are those of the source. The calls are words filed in the database; no cut-off is given here.

Assays:
Format in all cases: nucleic-acid assay
[1] = tested on: Nucleic Acid; test: Binding affinity to 2-amino purine labelled SAM2 riboswitch aptamer assessed as change in fluorescence at 5 mM to 10 mM at pH 8.3 by fluorescence binding assay
[2] = tested on: Nucleic Acid; test: Binding affinity to SAM1 riboswitch aptamer assessed as change in heat at 0.5 mM at pH 7.5 by Isothermal titration calorimetry
[3] = tested on: Nucleic Acid; test: Ratio of S-adenosylmethionine Kd to compound Kd for SAM2 riboswitch aptamer

Nc1ncnc2c1ncn2[C@@H]1O[C@H](CSCC[C@H](N)C(=O)O)[C@@H](O)[C@H]1O
Activity [1]: inactive

C[S+](CC[C@H](N)C(=O)NCCN)C[C@H]1O[C@@H](n2cnc3c(N)ncnc32)[C@H](O)[C@@H]1O (stereo not given in full)
Kd [1]: 3.1 µM
Activity [2]: inactive

C[S+](CC[C@H](NC(=O)CN)C(=O)O)C[C@H]1O[C@@H](n2cnc3c(N)ncnc32)[C@H](O)[C@@H]1O (stereo not given in full)
Activity [1]: inactive

C[S+](CC[C@H](NC(=O)CCN)C(=O)O)C[C@H]1O[C@@H](n2cnc3c(N)ncnc32)[C@H](O)[C@@H]1O (stereo not given in full)
Activity [1]: inactive

C[S+](CC[C@H](NC(=O)CNCCN)C(=O)O)C[C@H]1O[C@@H](n2cnc3c(N)ncnc32)[C@H](O)[C@@H]1O (stereo not given in full)
Activity [1]: inactive

CN1/C(=C\c2cc[n+](CCCC(=O)N[C@@H](CC[S+](C)C[C@H]3O[C@@H](n4cnc5c(N)ncnc54)[C@H](O)[C@@H]3O)C(=O)O)c3ccccc23)Sc2ccccc21 (stereo not given in full)
Activity [1]: Active
Ratio [3]: 2

C[S+](CC[C@H](N)C(=O)[O-])C[C@H]1O[C@@H](n2cnc3c(N)ncnc32)[C@H](O)[C@@H]1O (stereo not given in full) [ADEMETIONINE]
Activity [1]: Active
Kd [1]: 6 µM
